Results taken from patent US10670605B2, “Cysteine reactive probes and uses thereof” (The Scripps Research Institute, priority 2015, dated 2020).
Structures can show the parent of a compound that is named as a salt.

Legend:
Test in all cases: isoTOP-ABPP of compound-treated primary human T cells
Type in all cases: cell-based
[1] = biological target: T1, Cys residues in primary human T cells (Homo sapiens, UniProt Q6IA69); settings: NADSYN1 C428 (Q6IA69)
T1 sequence (Q6IA69 1-706): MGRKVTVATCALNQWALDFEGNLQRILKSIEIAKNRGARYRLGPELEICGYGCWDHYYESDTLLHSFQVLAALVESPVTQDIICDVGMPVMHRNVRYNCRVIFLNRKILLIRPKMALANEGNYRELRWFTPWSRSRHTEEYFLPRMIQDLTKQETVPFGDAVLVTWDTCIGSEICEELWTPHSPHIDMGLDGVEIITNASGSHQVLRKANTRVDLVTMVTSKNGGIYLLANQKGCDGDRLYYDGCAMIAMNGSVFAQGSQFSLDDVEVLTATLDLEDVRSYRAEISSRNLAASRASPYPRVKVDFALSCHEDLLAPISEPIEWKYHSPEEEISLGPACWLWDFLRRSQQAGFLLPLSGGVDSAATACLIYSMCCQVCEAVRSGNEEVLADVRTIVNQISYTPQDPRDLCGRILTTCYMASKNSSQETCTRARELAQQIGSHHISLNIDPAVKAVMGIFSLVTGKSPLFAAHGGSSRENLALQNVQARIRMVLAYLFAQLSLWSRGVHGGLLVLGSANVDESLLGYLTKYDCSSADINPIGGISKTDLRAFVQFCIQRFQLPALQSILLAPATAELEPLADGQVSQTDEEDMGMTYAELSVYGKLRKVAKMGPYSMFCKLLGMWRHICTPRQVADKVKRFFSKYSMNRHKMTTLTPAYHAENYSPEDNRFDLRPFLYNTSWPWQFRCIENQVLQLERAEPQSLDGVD

[2] = biological target: T2, Cys residues in primary human T cells (Homo sapiens, UniProt Q9Y2W6); settings: TDRKH C109 (Q9Y2W6)
T2 sequence (Q9Y2W6 1-561): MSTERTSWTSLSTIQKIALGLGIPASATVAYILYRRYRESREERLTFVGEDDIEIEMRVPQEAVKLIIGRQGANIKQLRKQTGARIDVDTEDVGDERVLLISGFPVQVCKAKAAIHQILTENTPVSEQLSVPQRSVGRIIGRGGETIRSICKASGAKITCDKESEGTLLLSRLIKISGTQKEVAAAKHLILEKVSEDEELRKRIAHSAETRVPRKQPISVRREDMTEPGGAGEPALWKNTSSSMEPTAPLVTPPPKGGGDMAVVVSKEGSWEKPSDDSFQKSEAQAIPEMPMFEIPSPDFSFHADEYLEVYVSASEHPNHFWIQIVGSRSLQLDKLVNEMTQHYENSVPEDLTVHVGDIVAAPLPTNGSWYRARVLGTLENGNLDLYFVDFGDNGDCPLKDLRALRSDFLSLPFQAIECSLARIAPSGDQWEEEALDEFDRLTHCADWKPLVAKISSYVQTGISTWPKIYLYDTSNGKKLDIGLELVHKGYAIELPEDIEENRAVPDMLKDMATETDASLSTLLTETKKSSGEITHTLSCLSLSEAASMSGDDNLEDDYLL

[3] = biological target: Cys residues in primary human T cells (Homo sapiens, UniProt P31153)
[4] = biological target: T3, Cys residues in primary human T cells (Homo sapiens, UniProt P29590); settings: PML C479 (P29590)
T3 sequence (P29590 1-882): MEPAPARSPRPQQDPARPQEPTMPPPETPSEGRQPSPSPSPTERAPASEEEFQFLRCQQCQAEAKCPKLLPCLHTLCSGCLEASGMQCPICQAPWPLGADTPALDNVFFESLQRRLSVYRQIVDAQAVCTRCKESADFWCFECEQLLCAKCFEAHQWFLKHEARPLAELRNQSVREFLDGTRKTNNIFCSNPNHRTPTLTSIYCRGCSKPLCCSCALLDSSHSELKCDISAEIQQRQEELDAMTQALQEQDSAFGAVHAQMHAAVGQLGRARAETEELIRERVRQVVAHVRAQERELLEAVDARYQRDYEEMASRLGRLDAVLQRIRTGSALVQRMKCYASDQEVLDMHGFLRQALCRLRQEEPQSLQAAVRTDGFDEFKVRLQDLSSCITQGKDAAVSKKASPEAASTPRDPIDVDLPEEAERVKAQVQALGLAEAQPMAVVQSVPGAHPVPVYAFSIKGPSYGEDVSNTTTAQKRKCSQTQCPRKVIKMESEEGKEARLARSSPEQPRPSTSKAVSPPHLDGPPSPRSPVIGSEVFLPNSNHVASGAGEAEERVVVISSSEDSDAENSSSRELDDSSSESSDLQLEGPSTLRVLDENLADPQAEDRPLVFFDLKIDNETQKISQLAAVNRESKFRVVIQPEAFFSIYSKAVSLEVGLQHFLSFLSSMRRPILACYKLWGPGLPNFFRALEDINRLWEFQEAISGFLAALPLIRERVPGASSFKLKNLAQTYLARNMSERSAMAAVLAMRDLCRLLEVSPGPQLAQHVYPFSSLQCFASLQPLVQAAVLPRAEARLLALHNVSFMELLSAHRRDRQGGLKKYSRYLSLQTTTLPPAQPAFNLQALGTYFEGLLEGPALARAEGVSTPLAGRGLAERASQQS

[5] = biological target: T4, Cys residues in primary human T cells (Homo sapiens, UniProt Q16548)
T4 sequence (Q16548 1-175): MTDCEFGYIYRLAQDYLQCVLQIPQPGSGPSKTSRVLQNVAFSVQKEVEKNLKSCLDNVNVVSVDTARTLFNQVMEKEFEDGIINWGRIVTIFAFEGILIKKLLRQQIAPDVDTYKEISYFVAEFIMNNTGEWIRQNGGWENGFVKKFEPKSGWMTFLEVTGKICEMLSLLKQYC

Sequence of Cys residues in primary human T cells (Homo sapiens, UniProt P31153) (P31153 whole entry): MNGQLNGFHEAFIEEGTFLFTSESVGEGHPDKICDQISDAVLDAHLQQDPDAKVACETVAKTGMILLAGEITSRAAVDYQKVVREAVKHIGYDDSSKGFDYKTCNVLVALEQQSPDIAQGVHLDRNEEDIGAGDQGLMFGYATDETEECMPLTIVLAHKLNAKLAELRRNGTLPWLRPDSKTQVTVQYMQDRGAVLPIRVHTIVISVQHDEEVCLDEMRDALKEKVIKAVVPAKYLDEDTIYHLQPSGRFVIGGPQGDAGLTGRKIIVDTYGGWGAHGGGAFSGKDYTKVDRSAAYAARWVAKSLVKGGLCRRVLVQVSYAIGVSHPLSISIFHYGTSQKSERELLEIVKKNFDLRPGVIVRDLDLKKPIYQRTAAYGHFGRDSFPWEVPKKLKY

COC(=O)/C=C/C(=O)OC [DMF, dimethyl fumarate]
R value (DMSO/DMF) ([1]; DMF 10 μM 4h): 1.43
R value (DMSO/DMF) ([1]; DMF 50 μM 1h): 1.81
R value (DMSO/DMF) ([1]; DMF 50 μM 2h): 2.31
R value (DMSO/DMF) ([1]; DMF 50 μM 4h): 20
R value (DMSO/DMF) ([2]; DMF 10 μM 4h): 2.34
R value (DMSO/DMF) ([2]; DMF 50 μM 1h): 4
R value (DMSO/DMF) ([2]; DMF 50 μM 2h): 20
R value (DMSO/DMF) ([2]; DMF 50 μM 4h): 20
R value (DMSO/DMF) ([3]; MAT2A C56 (P31153), DMF 50 μM 4h): 4.17
R value (DMSO/DMF) ([3]; MAT2A C104 (P31153), DMF 10 μM 4h): 1.5
R value (DMSO/DMF) ([3]; MAT2A C104 (P31153), DMF 50 μM 4h): 4.11
R value (DMSO/DMF) ([4]; DMF 10 μM 4h): 2.1
R value (DMSO/DMF) ([4]; DMF 25 μM 4h): 2.17
R value (DMSO/DMF) ([4]; DMF 50 μM 2h): 4.57
R value (DMSO/DMF) ([5]; BCL2A1 C19 (Q16548), DMF 10 μM 4h): 1,15
R value (DMSO/DMF) ([5]; BCL2A1 C19 (Q16548), DMF 25 μM 4h): 2.19
R value (DMSO/DMF) ([5]; BCL2A1 C19 (Q16548), DMF 50 μM 2h): 2.09
R value (DMSO/DMF) ([5]; BCL2A1 C19 (Q16548), DMF 50 μM 4h): 4.16
R value (DMSO/DMF) ([5]; BCL2A1 C55 (Q16548), DMF 50 μM 4h): 7.18
